Reference: publication PMC7481839, “Switchable foldamer ion channels with antibacterial activity” (Chemical Science, 2020)
In brackets after ≈: the same amount, converted by molar mass. Where a SMILES comes first, the peptide text is derived from it.

Columns and labels:
[1] = HPTS assay of ionophoric activity in phospholipid vesicles; format: biochemical; conditions: Table S1, HPTS assay
Method: The membrane activity of 1, 2, Cu[1]Cl2 and Cu[2]Cl2 was assessed in phospholipid vesicle membranes using 8-hydroxypyrene-1,3,6-trisulfonate (HPTS) assays. HPTS assays can show ionophoric activity that occurs via any combination of M^+/H^+ antiport, X^–/OH^– antiport, M^+/OH^– symport and X^–/H^+ symport.
The HPTS assays of 1, 2, Cu[1]Cl2 and Cu[2]Cl2 used 1 : 4 cholesterol : egg yolk phosphatidylcholine (EYPC) vesicles in MOPS buffer (pH 7.4) with 100 mM of an appropriate salt (e.g. KCl, KBr, NaCl), following previously reported procedures.[16] The resulting normalised data were fitted to pseudo first-order rate equations as an approximation (see the ESI ^†).[32] Although the change in fluorescence after the “burst phase” is likely to arise from multiple processes, including inter-vesicle transfer of foldamers,[33] this fitting allows the relative effectiveness of each compound to be compared.
CuCl2 was added at 2 min, followed by addition of 2.2 eq. EDTA at 3 min.
5.1 Preparation of large unilamellar vesicles for HPTS assays
The HPTS assays of 1, 2, Cu[1]Cl2 and Cu[2]Cl2 used 1:4 cholesterol:egg yolk phosphatidylcholine (EYPC) vesicles in MOPS buffer (pH 7.4) with 100 mM of an appropriate salt (e.g. KCl, KBr, NaCl).5 Aliquots of 1, 2, Cu[1]Cl2 or Cu[2]Cl2 dissolved in methanol were mixed with the vesicle suspensions for 60 s before adding a base pulse to change the external pH to 8.4.6 The resulting change in HPTS fluorescence was followed for 6 min, then Triton X-100 was added at 7 min to lyse the vesicles […]. Each assay was repeated three times on new vesicles. The resulting normalized data were fitted to pseudo first-order rate equations as an approximation (see the ESI), similar to the procedure of Regen and co-workers.7 Although the change in fluorescence after the “burst phase” is likely to arise from multiple processes, including inter-vesicle transfer of foldamers,8 this fitting allows the relative effectiveness of each compound to be compared.
Egg yolk phosphatidylcholine (EYPC, 64 μmol) and cholesterol (16 μmol) were dissolved in 2 mL chloroform (spectroscopic grade). The solvent was removed under reduced pressure resulting in a thin film of lipid on the inside wall of the round bottom flask, which was dried further under vacuum for 2 hours. 1.2 mL of a trisodium 8-hydroxypyrene-1,3,6-trisulfonate (HPTS, 100 mM, pH = 7.4) dye in (3-(N-morpholino) propanesulfonic acid) buffer (20 mM MOPS, 100 mM MX (M = K or Na, X = Cl, Br or NO3− adjusted to pH 7.4 using NaOH) were added to the lipid film. Afterwards, the thin film was detached from the sides of the flask by vortex mixing. The resulting lipid suspension was then extruded 19 times through an 800 nm polycarbonate membrane in an Avestin Liposofast extruder to give a suspension of 800 nm large unilamellar vesicles. Unencapsulated HPTS dye was removed by gel permeation chromatography on PD-10 SEC columns (Sephadex G-25). Hereby 1 mL of the 800 nm vesicle suspension was diluted to 2.5 mL with 20 mM MOPS buffer solution and loaded onto the GPC column. The suspension run onto the column, followed by 3.5 mL of 20 mM MOPS buffer, which were collected, giving a stock vesicle solution of 3.5 mL (final concentration of lipids = 15.23 mM). This solution of vesicles was used directly in the HPTS experiments.
5.2 Procedure for HPTS assays
100 μL of the vesicle stock solution was diluted to 2 mL with 20 mM MOPS buffer (final lipid concentration in cuvette 0.762 mM). To this vesicle suspension was then added 20 μL of the principle compound in methanol (1 mM or 0.6 mM for Cu[2]Cl2) and the cuvette was equipped with a stirrer bar. The cuvette was […]

[2] = U-tube sodium picrate transport experiment; conditions: 1 mM in chloroform, 20 mM MOPS, 100 mM NaCl, pH 7.4, 25 °C, after 24 h, UV at 356 nm
Method: To assess if these compounds can act as cation carriers, U-tube experiments for sodium picrate transport were performed on 1, Cu(II)[1]Cl2 and Cu(II)[2]Cl2. […] Similarly, a U-tube experiment for chloride transport was performed using lucigenin.[4],[40]
5.7 Preparation of large unilamellar vesicles for CF release assays
A 50 mM 5(6)-carboxyfluorescein (CF) solution in MOPS buffer (20 mM MOPS, 100 mM NaCl, pH 7.4) was prepared by dissolving 5/6-CF in MOPS buffer, adding a sodium hydroxide (1M) solution dropwise until pH 11 was reached. The resulting solution was the slowly acidified to pH 7.4.
EYPC-cholesterol (4:1) 800 nm vesicles were prepared as described above, using the above mentioned 5(6)-carboxyfluorescein (CF) (50 mM) solution. […]
The U-tube was incubated in a water bath at 25 °C and the chloroform phase was stirred at 300 rpm during the entire experiment, ensuring efficient diffusion of any potential carrier-ion complex to the receiving phase. Aliquots (1 mL) were taken from the receiving phase and analysed for the presence of picrate by UV spectroscopy (at 356 nm). […]
Figure S11: U-tube metal picrate transport data for foldamer 1 (brown), Cu[2]Cl2 (black), Cu[1]Cl2 (green), and the control transporter, dibenzo-18-crown-6 (red). Absorbance at 356 nm. […]

Solubility = format: physicochemical
Text: Mixing 1 or 2 with CuCl2 or CuCl provided green or blue complexes respectively. […] The blue complexes from the addition of CuCl gave very broad NMR spectra even after preparing fresh samples, which was ascribed to in situ oxidation of Cu(I); Cu(I)(TPA) complexes are very efficient one electron donors and will rapidly reduce alkyl halides[27] and oxygen.[28] Furthermore these blue products gave green solids when dried (see the ESI, Fig. S2 ^†).
Although alamethicin is a very active channel former, its use in the clinic is hampered by its high haemolytic activity.[52] […] It is known that the haemolytic activity of amphipathic peptides, including alamethicin, decreases substantially on a reduction of peptide hydrophobicity and hydrophobic moment.[56]

CC(C)(C)OC(=O)C(C)(C)NC(=O)C(C)(C)NC(=O)C(C)(C)NC(=O)C(C)(C)NC(=O)C(C)(C)NC(=O)C(C)(C)NC(=O)C(C)(C)NC(=O)C(C)(C)n1cc(CN(Cc2ccccn2)Cc2ccccn2)nn1 [foldamer 1] (HELM PEPTIDE1{[CC(C)(C(=O)[*:2])n1cc(CN(Cc2ccccn2)Cc2ccccn2)nn1].[Aib].[Aib].[Aib].[Aib].[Aib].[Aib].[Aib].[CC(C)(C)O[*:1]]}$$$$V2.0)
Apparent observed rate constant kobs, KBr ([1]; 100 mM KBr, compound 10 µM): 3.3 10−3 s−1 | Apparent observed rate constant kobs, KCl ([1]; 100 mM KCl, compound 10 µM): 3 10−3 s−1 | Apparent observed rate constant kobs, KNO3 ([1]; 100 mM KNO3, compound 10 µM): 4 10−3 s−1 | Apparent observed rate constant kobs, NaCl ([1]; 100 mM NaCl, compound 10 µM, methanol control 1 × 10−3 s−1): 4 10−3 s−1 | sodium picrate transport across the bulk chloroform phase [2]: No transport across the bulk phase was observed | solubility limit (Solubility): 20 µM (≈ 20.4 µg/mL)
